Patent US6642036B2, “Sinapoylglucose:malate sinapoyltransferase form malate conjugates from benozic acid glucosides” (E. I. Du Pont de Nemours and Company, priority 2000, dated 2003)
Where two headings read alike, the source gives them in different places.

Tests used:
[1] = target: SMT (sinapoylglucose:malate sinapoyltransferase) (Arabidopsis thaliana, UniProt Q8RUW5, A20T/S19M)
Experimental: Sinapoyl glucose was purified from the sng1 mutant of Arabidopsis as described by Lorenzen et al. (Plant Physiology 112:1625-1630 (1996)). […] Assays were incubated for 14 h at 30° C., stopped by addition of 30 μL of methanol and stored at −70° C. before analysis by HPLC. Enzyme assays were analyzed by HPLC on a Nova-Pak® Pak® C18 column (60 Å pore size, […] particle size) using a gradient from 6% acetonitrile, 1.5% phosphoric acid to 48% acetonitrile, followed by 1.5% phosphoric acid and UV detection at 335 nm.

O=C(O)CC(O)C(=O)O = assay: purified protein, by the assay type; settings: other: 30° C., 500 μM sinapoyl glucose, 100 mM potassium phosphate buffer (pH 6.8), 50 ng partially purified SMT, Hofstee plot
[2] = target: T1, recombinantly produced, refolded SMT protein (Arabidopsis thaliana, UniProt Q8RUW5, A20T/S19M); assay type: biochemical; settings: for acceptance as acyl acceptor with sinapoylglucose or PHBA 1-O-acylglucoside: 200 ng SMT, 500 μM glucose ester, 400 mM alcohol, pH 6.2, 30° C. for 16 h
T1 construct: consisting primarily of recombinant mature Arabidopsis SMT and some minor protein contaminants; initiator Met (start codon added in place of the signal peptide) (N); made in house
Experimental: Sinapoyl glucose was purified from the sng1 mutant of Arabidopsis as described by Lorenzen et al. (Plant Physiology 112:1625-1630 (1996)). The SMT assay contained 12.5 μL of 0.5 mM sinapoyl glucose in 100 mM potassium phosphate buffer (pH 7.5), 5 μL of 100 mM potassium phosphate buffer (pH 6.0), 5 μL of 1 M malic acid in potassium phosphate buffer (pH 6.0) and 5 μL of E. coli extract corresponding to 100 μg of protein. Assays were incubated for 14 h at 30° C., stopped by addition of 30 μL of methanol and stored at −70° C. before analysis by HPLC. Enzyme assays were analyzed by HPLC on a Nova-Pak® Pak® C18 column (60 Å pore size, […] particle size) using a gradient from 6% acetonitrile, 1.5% phosphoric acid to 48% acetonitrile, followed by 1.5% phosphoric acid and UV detection at 335 nm.
Approximately 250 ng of recombinantly produced, refolded SMT protein was incubated with 200 mM malate, 0.1 mM PHBA 1-O-acyl glucoside in a 25 μL reaction in 100 mM potassium phosphate buffer (pH 6.2) for 12 h at 30° C. Reaction products were separated by HPLC as described in the General Methods. […] The compound was analyzed by LC-MS as described in the General Methods.
The activity of the SMT enzyme was determined using sinapoyl glucose and L-lactate as follows. 1 μg of partially purified recombinant SMT protein was incubated with 500 μM sinapoyl glucose in 100 mM potassium phosphate buffer (pH 6.2) in the absence or presence of 200 mM L-lactate. Enzyme reactions were incubated at 30° C. for 12 h. Reaction products were analyzed by HPLC as described in the General Methods.
Activity of the SMT enzyme was determined using sinapoylglucose or PHBA 1-O-acylglucoside and methanol, ethanol and isopropanol. Briefly, 200 ng of partially purified recombinantly produced SMT protein was incubated with 500 μM of the glucose ester of sinapic acid or PHBA in 100 mM potassium phosphate buffer (pH 6.2) in the absence or presence of 400 mM of the respective alcohols in 100 μL enzyme reactions. Enzyme reactions were incubated at 30° C. for 16 h. All reaction products were analyzed by HPLC as described in Example 1.

[3] = target: T2, sinapoyl glucose and L-malate (SMT reaction) (Arabidopsis thaliana, UniProt Q8RUW5, A20T/S19M); assay: Turnover number of purified recombinant SMT folded from inclusion bodies; assay type: biochemical; settings: 30° C., 100 mM potassium phosphate buffer (pH 6.2), 500 μM sinapoyl glucose, 200 mM L-malate
T2 construct: consisting primarily of recombinant mature Arabidopsis SMT and some minor protein contaminants; initiator Met (start codon added in place of the signal peptide) (N); made in house
Experimental: As judged by SDS-PAGE and Coomassie-blue staining, the folded recombinant protein was at least 80% pure and the final yield of active SMT from the 100 mL folding reaction was ˜6 μg, corresponding to ˜0.52% of the original inclusion body material. The turnover number for purified recombinant SMT folded from inclusion bodies was ˜18/sec at 30° C., which compares favorably to the 11.5/sec value that was previously reported for the authentic protein purified from radish (Graewe et al., Planta 187:236-241 (1992)). For this determination the 25 μL enzyme reaction contained 100 mM potassium phosphate buffer (pH 6.2), 500 μM sinapoyl glucose and 200 mM L-malate.

COc1cc(/C=C/C(=O)O[C@@H]2O[C@H](CO)[C@@H](O)[C@H](O)[C@H]2O)cc(OC)c1O [sinapoyl glucose]
Vmax of SMT for sinapoyl glucose ([1]; 30° C., 200 mM malate, 50 ng partially purified SMT, y-intercept of regression curve): 21.315 μmol min^−1 mg^−1 protein | Km ([1]; read-out: Km of SMT for sinapoyl glucose, pH 6.8): ~541 µM

SMT (sinapoylglucose:malate sinapoyltransferase) (Arabidopsis thaliana; A20T/S19M)
Km (O=C(O)CC(O)C(=O)O): 42000 µM

CCO [ethanol]
acceptance as acyl acceptor with sinapoylglucose or PHBA 1-O-acylglucoside [2]: production of methyl, ethyl and isopropyl esters of sinapic acid and PHBA

O=C(O[C@@H]1O[C@H](CO)[C@@H](O)[C@H](O)[C@H]1O)c1ccc(O)cc1 [PHBA 1-O-acyl glucoside]
conversion by SMT in the presence of malate ([2]; 250 ng SMT, 200 mM malate, 0.1 mM PHBA 1-O-acyl glucoside, pH 6.2, 12 h at 30° C., product m/z agrees with PHBA malate): converted to a new compound | Vmax of SMT for PHBA 1-O-acyl glucoside ([1]; 30° C., 200 mM malate, 500 ng partially purified SMT, y-intercept of regression curve): 0.2482 μmol min^−1 mg^−1 protein | Km ([1]; read-out: Km of SMT for PHBA 1-O-acyl glucoside, 30° C., 200 mM malate, 100 mM potassium phosphate buffer (pH 6.8), 500 ng partially purified SMT, PHBA malate synthesis, Hofstee plot): ~354 µM

CC(C)O [isopropanol]
acceptance as acyl acceptor with sinapoylglucose or PHBA 1-O-acylglucoside [2]: production of methyl, ethyl and isopropyl esters of sinapic acid and PHBA

CO [methanol]
acceptance as acyl acceptor with sinapoylglucose or PHBA 1-O-acylglucoside [2]: production of methyl, ethyl and isopropyl esters of sinapic acid and PHBA

C[C@H](O)C(=O)O [L-lactate]
acceptance as acyl acceptor with sinapoyl glucose ([2]; 1 μg SMT, 500 μM sinapoyl glucose, 200 mM L-lactate, pH 6.2, 30° C. for 12 h, product m/z agrees with sinapoyl lactate): a new compound that absorbs at 335 nm is produced

B1: purified recombinant SMT: recombinant mature Arabidopsis sinapoylglucose:malate sinapoyltransferase (SEQ ID NO:7) folded from E. coli inclusion bodies (protein)
chain: MTSIVKFLPGFEGPLPFELETGYIGIGEDENVQFFYYFIKSENNPKEDPLLIWLNGGPGCSCLGGIIFENGPVGLKFEVFNGSAPSLFSTTYSWTKMANIIFLDQPVGSGFSYSKTPIDKTGDISEVKRTHEFLQKWLSRHPQYFSNPLYVVGDSYSGMIVPALVQEISQGNYICCEPPINLQGYMLGNPVTYMDFEQNFRIPYAYGMGLISDEIYEPMKRICNGNYYNVDPSNTQCLKLTEEYHKCTAKINIHHILTPDCDVTNVTSPDCYYYPYHLIECWANDESVREALHIEKGSKGKWARCNRTIPYNHDIVSSIPYHMNNSISGYRSLIYSGDHDIAVPFLATQAWIRSLNYSPIHNWRPWMINNQIAGYTRAYSNKMTFATIKGGGHTAEYRPNETFIMFQRWISGQPL
turnover number [3]: ~18 s⁻¹
